Key:
[1] = system: Promega Mid-Range Molecular Weight Markers; test: Detection of proteins during SDS-PAGE electrophoresis (dye in cathode buffer)
Source text: Solutions for the formation and electrophoresis of proteins were made according to the instructions given in Experiments in Gene Fusions, Silhavy, Berman, Enquist, Cold Spring Harbor Laboratory Press, Cold Spring Harbor, N.Y. with the following changes:
a) The SDS concentration in the upper and lower gel buffer components were reduced to result in a 0.05% final SDS concentration in the gel. Thus, the composition of 4× upper gel buffer was 0.5M Tris-HCl, pH 6.8, 0.2 % (w/v) sodium dodecylsulfate (SDS) and the composition of 4× lower gel buffer was 1.5M Tris-HCl, pHS.8, 0.2 % (w/v) SDS.
b) The SDS concentration in the electrophoretic (electrode) buffer was reduced to 0.04% final concentration. Thus, 4× electrode (anode or cathode) buffer was made by dissolving 60 g Tris base, 288 g glycine, and 8 g SDS dissolved in water and then diluting with water to 5 liters. Another name sometimes used for "electrode" buffer is "running" buffer.
c) The SDS concentration in the 2× sample buffer was reduced to 1% final SDS concentration. Thus, 2× sample buffer was made by mixing 0.5 ml of betamercaptoethanol, 0.25 ml of 0.1% (w/v) bromophenol blue, 1 ml of 10 % (w/v) SDS, 3 ml of water, and 5.3 ml of 2× glycerol buffer. 2× glycerol buffer is made by mixing 12.5 ml of 4× upper gel buffer and 20 ml of glycerol and diluting the resulting solution to 60 ml with water. Another name sometimes used for "sample" buffer is "loading" buffer.
d) Electrophoresis was performed using a BIO-RAD miniprotein II electrophoresis apparatus and gels were poured such that i cm of space was present between the bottom of the loading wells and the separating gel.
In other electrophoresis experiments reported in this application, the buffers used were as described above in this example. In some cases, as in this example, where preparation of a solution of dye in 150 ml of cathode (or electrode) buffer is specified, an amount of stock solution of a dye was first added to 150 ml of cathode buffer and then 125 ml of the resulting solution was used to fill the cathode buffer chamber (which holds 125 ml) in the electrophoresis apparatus. In other cases, where addition of stock solution of dye to the cathode buffer is specified without reference to the volume of cathode buffer or with reference to such volume being "125 ml," the stock solution was added directly to 125 ml of cathode buffer already in the cathode buffer chamber.
The samples used were prepared with Promega Mid-Range Molecular Weight Markers solution (Promega Corp., Madison, Wis., USA, Catalog No. V5231) (referred to hereinafter as "Promega Mid-Range [Molecular Weight] Markers or Standards") diluted into Sample Buffer. […]

[2] = system: bovine serum albumin (BSA); test: Effect of solution pH on absorption in presence and absence of protein; type: physicochemical
Experimental: The effect of solution pH on the absorption of Promega Green 1 in the presence and absence of added protein was studied by dilution of Promega Green 1 solution at a ratio of 1:1000 (v/v) into various solutions containing 0 or 100 μg of protein (bovine serum albumin (BSA)) per ml of liquid. The solutions tested were highly acidic (1N HCl), moderately acidic (2% acetic acid), weakly acidic (50 mM ammonium acetate pH 4.0), weakly basic (50 mM ammonium bicarbonate pH 7.8), and strongly basic (500 mM Tris base). The absorption spectra of the solutions were measured from […] and the peak absorbances are reported below.

[3] = system: Promega Mid-Range Molecular Weight Markers; test: Recovery of proteins separated by gel electrophoresis; conditions: re-run 10% SDS-PAGE, 30% methanol, 4% acetic acid, 1 hour
Experimental: An 8% SDS-PAGE gel was prepared as described above and loaded with Promega Mid-Range Molecular Weight Markers at a concentration of 4 μg of each protein per lane. The gel was run at 160 V with 200 μl of octyl Coomassie (Promega Green 1) stock solution in the cathode buffer (125 ml).
After electrophoresis, the gel segments containing the 97, 66, 55, 43, and 40 kilodalton proteins were excised from four consecutive lanes, minced, and placed in individual 1.5 ml Eppendorf tubes containing 0.5 ml of 50 mM ammonium bicarbonate pH 7.8 containing 0.02% SDS (w/v). The tubes were then incubated at 50° C. for 14 hours.
After that time, the tubes were spun for 1 minute in a microfuge to pellet the minced acrylamide and 0.47 ml of the supernate was removed to new 1.5 ml tubes. Two of the four solutions from each of the eluted protein samples were dried in a Speed-Vac, the other pair was first ultrafiltered through a 5000 dalton cut-off Milligen centrifugal concentrator by centrifugation in a microfuge for 30 minutes. These concentrated solutions were then dried in a Speed Vac.
The dried samples were resuspended in 25 μl of 1× loading buffer and heated at 95° C. for 10 minutes. These samples were then loaded in two 15-well, 0.75 mm 10% SDS-PAGE gels made as above. The gels were then run at 160 V with 200 μl of Promega Green 1 stock solution in the cathode buffer (125 ml). […]

[4] = moderately acidic (2% acetic acid), protein absent
[5] = moderately acidic (2% acetic acid), protein present (100 μg/ml BSA)
[6] = strongly acidic (1N HCl), protein absent
[7] = strongly acidic (1N HCl), protein present (100 μg/ml BSA)
[8] = strongly basic (500 mM Tris base), protein absent
[9] = strongly basic (500 mM Tris base), protein present (100 μg/ml BSA)
[10] = weakly acidic (50 mM ammonium acetate pH 4.0), protein absent
[11] = weakly acidic (50 mM ammonium acetate pH 4.0), protein present (100 μg/ml BSA)
[12] = weakly basic (50 mM ammonium bicarbonate pH 7.8), protein absent
[13] = weakly basic (50 mM ammonium bicarbonate pH 7.8), protein present (100 μg/ml BSA)

- ABS (peak absorbance) [2, 4]: 0.83
- absorption max [2, 4]: 631 nm
- ABS (peak absorbance) [2, 5]: 0.98
- absorption max [2, 5]: 635 nm
- ABS (peak absorbance) [2, 6]: 0.27
- absorption max [2, 6]: 649 nm
- ABS (peak absorbance) [2, 7]: 0.39
- absorption max [2, 7]: 641 nm
- ABS (peak absorbance) [2, 8]: 0.22
- absorption max [2, 8]: 637 nm
- ABS (peak absorbance) [2, 9]: 0.128
- absorption max [2, 9]: 637 nm
- ABS (peak absorbance) [2, 10]: 0.49
- absorption max [2, 10]: 636 nm
- ABS (peak absorbance) [2, 11]: 0.25
- absorption max [2, 11]: 638 nm
- ABS (peak absorbance) [2, 12]: 0.49
- absorption max [2, 12]: 636 nm
- ABS (peak absorbance) [2, 13]: 0.26
- absorption max [2, 13]: 637 nm
Compound: CCCCCCCC(=O)N(c1ccc(OCC)cc1)c1ccc(C(=C2C=CC(=[N+](CC)Cc3cccc(S(=O)(=O)[O-])c3)C=C2)c2ccc(N(CC)Cc3cccc(S(=O)(=O)O)c3)cc2)cc1 [Promega Green 1]
- lowest protein amount per band visible while the gel was running ([1]; 10% SDS-PAGE, dye in cathode buffer, white plastic card behind gel): 1.0 µg
- lowest protein amount per band visible by the end of the run (most of the bands) ([1]; essentially clear background): 0.5 µg
- detection of recovered proteins [3]: the expected protein bands could be seen in the lanes

— patent US5705649A, “Protein staining compositions and methods” (Promega Corporation, priority 1995, dated 1998)
